Measurements taken from paper PMC10266417, “LeishIF3d is a non-canonical cap-binding protein in Leishmania” (Frontiers in Molecular Biosciences, 2023).

Tests used:
LeishIF3d = target: T1, LeishIF3d (Leishmania mexicana, UniProt E9B178); assay: m7GTP-agarose affinity binding of purified His-tagged protein, elution with free m7GTP, anti-His western blot; details: m7GTP immobilised on agarose; eluted with free m7GTP
T1 construct: gene LMXM_29_3040; full ORF (1596 bp); recombinant His-tagged from E. coli BL21 (pET52, Ni-NTA); mutants C-terminally SBP-tagged, expressed episomally in L. mexicana
T1 sequence (E9B178 1-531): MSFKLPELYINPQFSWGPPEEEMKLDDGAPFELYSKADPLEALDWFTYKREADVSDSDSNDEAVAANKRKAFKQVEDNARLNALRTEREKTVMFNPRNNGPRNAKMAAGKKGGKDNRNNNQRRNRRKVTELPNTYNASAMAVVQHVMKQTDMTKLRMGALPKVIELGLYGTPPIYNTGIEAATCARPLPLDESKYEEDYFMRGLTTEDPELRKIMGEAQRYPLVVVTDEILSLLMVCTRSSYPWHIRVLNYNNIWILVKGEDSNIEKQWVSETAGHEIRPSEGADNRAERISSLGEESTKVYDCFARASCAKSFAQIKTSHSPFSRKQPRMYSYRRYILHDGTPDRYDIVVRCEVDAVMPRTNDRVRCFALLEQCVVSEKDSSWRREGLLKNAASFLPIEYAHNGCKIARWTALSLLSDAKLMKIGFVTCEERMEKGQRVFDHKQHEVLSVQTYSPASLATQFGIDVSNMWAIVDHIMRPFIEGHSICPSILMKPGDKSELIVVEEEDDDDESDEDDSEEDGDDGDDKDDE

LeishIF4E1 = target: T2, LeishIF4E1 (Leishmania mexicana, UniProt E9AZ65); assay: m7GTP-agarose affinity pull-down, western blot with LeishIF4E1-specific antibodies; assay type: biochemical; details: L. mexicana extract; m7GTP immobilised on agarose; 20 mM HEPES pH 7.4, 50 mM NaCl; 100 uM GTP wash, 200 uM m7GTP elution; positive control
T2 construct: gene LMXM_27_1620; endogenous untagged protein in L. mexicana promastigote extract, detected with specific antibodies
T2 sequence (E9AZ65 1-213): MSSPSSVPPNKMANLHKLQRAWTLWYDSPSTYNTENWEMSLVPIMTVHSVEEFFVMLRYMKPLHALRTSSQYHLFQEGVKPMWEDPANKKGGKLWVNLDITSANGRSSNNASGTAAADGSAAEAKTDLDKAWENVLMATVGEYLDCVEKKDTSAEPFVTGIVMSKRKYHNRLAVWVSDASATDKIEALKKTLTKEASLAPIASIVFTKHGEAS

## C[n+]1cn([C@@H]2O[C@H](COP(=O)(O)OP(=O)(O)OP(=O)(O)O)[C@@H](O)[C@H]2O)c2nc(N)[nH]c(=O)c21 [m^7GTP]
LeishIF3d
  m7GTP-agarose affinity binding of purified His-tagged protein, elution with free: direct binding of recombinant His-tagged LeishIF3d to m^7GTP
LeishIF4E1
  m7GTP-agarose affinity pull-down, western blot with LeishIF4E1-specific antibodi: LeishIF3d could bind m^7GTP, as did the positive control of LeishIF4E1
